# Results from patent US8685919B2 (Zealand Pharma A/S, priority 2008, dated 2014).
# “Also recorded” adds a separate entry of the source. Like-named read-outs stand apart in the source and are kept apart here. Peptide text beside a SMILES is read from it.
# Columns and labels:
# human GLP-1-R = target: T1, human GLP-1-R (Homo sapiens, UniProt P43220); experiment: GLP-1-receptor efficacy assay (cAMP in HEK293 cells); assay type: cell-based
# T1 construct: expressed in transfected cells
# Procedure: The 5′-end primers additionally encoded a near Kozak consensus sequence to ensure efficient translation.
# 48 hr after transfection cells were seeded for limited dilution cloning and selected with 1 mg/ml G418 in the culture medium.
# On the day of analysis, growth medium was removed and the cells washed once with 200 μl Tyrode buffer. Cells were incubated in 100 μl Tyrode buffer containing increasing concentrations of test peptides, 100 μM IBMX, and 6 mM glucose for 15 min at 37° C. The reaction was stopped by addition of 25 μl 0.5 M HCl and incubated on ice for 60 min. The cAMP content was estimated using the FlashPlate® cAMP kit from Perkin-Elmer.
# [1] = system: primary rat adipocyte cultures; assay type: cell-based
# Procedure: Adipocytes were isolated from epididymal fat dissected from normal young adult Sprague-Dawley rats. The fat lumps were minced, incubated and shaken (220 rpm) with collagenase (1 mg/ml) in Krebs-Ringer buffer containing 4% BSA (KRB-BSA) for 60 minutes at 37° C. The suspension was filtered through a nylon filter (160 μm pore size) and the filtrate centrifuged at 200×g for 3 min. The subjacent medium beneath the upper floating layer of adipocytes was removed with a Pasteur-pipette. The adipocytes were washed 3 times in KRB-BSA buffer by re-suspension and centrifugation. The adipocytes were re-suspended in KRB-BSA, mixed, incubated in and shaken with test compounds in 96-deep well plates (50,000 cells/well) in a total volume of 1 ml at 37° C. for 60 min. The plates were placed on ice for at least 10 min after incubation followed by centrifugation at 200×g for 3 min. 300 μl of the buffer beneath the adipocyte layer were collected in a 96-deep well plate. This process was repeated two more times and the 3 extracts collected from each culture pooled together.
# C57BI/6 mice = experiment: Food intake in normal mice; assay type: in vivo; conditions: fasted mice, s.c.; PYY3-36 30 nmol/kg, glucagon 500 nmol/kg, ZP2669 500 nmol/kg
# Source text: Differences were considered significant at the p<0.05 level.
# [2] = system: diet induced obese (DIO) mice; experiment: 28 day treatment of DIO mice: plasma cholesterols (cholesterol, HDL, LDL); assay type: in vivo; conditions: DIO mice treated 4 weeks b.i.d., compared to vehicle
# Procedure: Four weeks before drug treatments, C57BI/6 male mice (7 weeks)) (N=10-12 animals in each group) were put on high fat diet (HFD) and their day-night cycle reversed with lights On/Off at 2000/0800 hour. Experimental animals were conditioned to treatment by daily injections (s.c.) of 0.1 ml vehicle and acclimatized to handling by weighing them twice a week one week before start of drug administrations. […] A non-obese control group maintained on regular chow was treated with vehicle in the same treatment regime as the DIO groups. Body weights were recorded daily and used to administer the body weight-corrected doses of peptide throughout the study. Animals were fasted overnight before sacrifice. An eye blood sample (0.6 ml EDTA) was obtained the following morning immediately before cervical dislocation. Blood plasma samples were stored at −80° C. until analyzed for cholesterol, HDL and LDL using commercially available kits. Body weight gains throughout the treatment period were calculated for each animal by subtracting its weight at the initiation of treatment.
# The effects of treatment on body weight gain and cholesterols were assessed by 2-way ANOVA with repeated measures and Bonferoni post-hoc analyses, using GraphPad Prism version 4. Differences were considered significant at the p<0.05 level.
# db/db mice = experiment: Oral glucose tolerance test (OGTT) in db/db mice; assay type: in vivo; conditions: 45 nmol/kg i.p.
# Procedure: Db/db mice were fasted overnight and an initial blood sample (fasting blood glucose level) taken just before administration (i.p.) of vehicle (Acetate buffer, 20 mM acetic acid, 250 mM mannitol, pH 5.0) or the test compound ZP2669 (SEQ ID NO: 4) (45 nmol/kg in acetate buffer). The animals were kept fasted during the experiment to prevent confounding food intake. Fifteen minutes later an oral dose of glucose (1 g/kg in 5 ml/kg) was given and BG levels were measured at t=30 min, t=60 min, t=120 min and t=240 min.
# Difference from baseline (t=0) was calculated for each time point and AUC0-240 min values were determined. Statistical analyses of AUC values by one-way ANOVA and Dunnetts post-hoc analyses were performed with GraphPad Prism version 4. Differences were considered significant at the p<0.05 level.
# [3] = system: diet induced obese (DIO) mice; experiment: 28 day treatment of diet induced obese (DIO) mice: body weight gain; assay type: in vivo
# Procedure: Four weeks before drug treatments, C57BI/6 male mice (7 weeks)) (N=10-12 animals in each group) were put on high fat diet (HFD) and their day-night cycle reversed with lights On/Off at 2000/0800 hour. Experimental animals were conditioned to treatment by daily injections (s.c.) of 0.1 ml vehicle and acclimatized to handling by weighing them twice a week one week before start of drug administrations. The day before start of experiment, mice were stratified into groups with similar body weight (BW) and the next day groups of stratified mice were treated (b.i.d.; s.c.) with ZP2669 (SEQ ID NO: 4) (500 nmol/kg) or vehicle (Acetate-buffer). ZP2669 (SEQ ID NO: 4) was given in isotonic acetate buffer (pH 4.8; 2.5 μl/g BW). […] Body weights were recorded daily and used to administer the body weight-corrected doses of peptide throughout the study. […] Blood plasma samples were stored at −80° C. until analyzed for cholesterol, HDL and LDL using commercially available kits. Body weight gains throughout the treatment period were calculated for each animal by subtracting its weight at the initiation of treatment.
# The effects of treatment on body weight gain and cholesterols were assessed by 2-way ANOVA with repeated measures and Bonferoni post-hoc analyses, using GraphPad Prism version 4. […]
# T1 sequence (P43220 24-463): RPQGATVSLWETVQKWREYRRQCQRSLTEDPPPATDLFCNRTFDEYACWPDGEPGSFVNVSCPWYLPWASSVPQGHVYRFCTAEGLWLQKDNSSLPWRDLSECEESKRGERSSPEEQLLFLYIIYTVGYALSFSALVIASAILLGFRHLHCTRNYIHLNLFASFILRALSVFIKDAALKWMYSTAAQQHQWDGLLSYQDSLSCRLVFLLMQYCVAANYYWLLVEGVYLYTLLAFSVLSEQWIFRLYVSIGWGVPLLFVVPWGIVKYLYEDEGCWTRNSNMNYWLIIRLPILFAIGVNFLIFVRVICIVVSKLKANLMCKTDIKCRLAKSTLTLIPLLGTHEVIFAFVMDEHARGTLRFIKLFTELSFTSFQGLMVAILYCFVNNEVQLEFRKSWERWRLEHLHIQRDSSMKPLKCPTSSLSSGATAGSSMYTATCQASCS
compound,measurement,setting,value
CC(C)C[C@H](NC(=O)[C@H](CC(C)C)NC(=O)[C@H](Cc1c[nH]c2ccccc12)NC(=O)[C@H](CCC(N)=O)NC(=O)[C@@H](NC(=O)[C@H](Cc1ccccc1)NC(=O)[C@H](CC(=O)O)NC(=O)[C@H](Cc1c[nH]cn1)NC(=O)[C@H](C)NC(=O)[C@H](C)NC(=O)[C@H](CCCCN)NC(=O)[C@H](CO)NC(=O)[C@H](CC(=O)O)NC(=O)[C@H](CC(C)C)NC(=O)[C@H](Cc1ccc(O)cc1)NC(=O)[C@H](CCCCN)NC(=O)[C@H](CO)NC(=O)[C@H](Cc1ccc(O)cc1)NC(=O)[C@H](CC(=O)O)NC(=O)[C@H](CO)NC(=O)[C@@H](NC(=O)[C@H](Cc1ccccc1)NC(=O)[C@@H](NC(=O)CNC(=O)[C@H](CCC(N)=O)NC(=O)[C@H](CO)NC(=O)[C@@H](N)Cc1c[nH]cn1)[C@@H](C)O)[C@@H](C)O)C(C)C)C(=O)N[C@@H](CCCNC(=N)N)C(=O)N[C@@H](C)C(N)=O [Compound L006-0172] (H-HSQGTFTSDYSKYLDSKAAHDFVQWLLRA-NH2),EC50,"human GLP-1-R; read-out: GLP-1R EC50 (nM), crude peptides marked *",21 nM
CSCC[C@H](NC(=O)[C@H](CC(C)C)NC(=O)[C@H](Cc1c[nH]c2ccccc12)NC(=O)[C@H](CCC(N)=O)NC(=O)[C@@H](NC(=O)[C@H](Cc1ccccc1)NC(=O)[C@H](CC(=O)O)NC(=O)[C@H](CCC(N)=O)NC(=O)[C@H](C)NC(=O)[C@H](C)NC(=O)[C@H](CCCCN)NC(=O)[C@H](CO)NC(=O)[C@H](CC(=O)O)NC(=O)[C@H](CC(C)C)NC(=O)[C@H](Cc1ccc(O)cc1)NC(=O)[C@H](CCCCN)NC(=O)[C@H](CO)NC(=O)[C@H](Cc1ccc(O)cc1)NC(=O)[C@H](CC(=O)O)NC(=O)[C@H](CO)NC(=O)[C@@H](NC(=O)[C@H](Cc1ccccc1)NC(=O)[C@@H](NC(=O)CNC(=O)[C@H](CCC(N)=O)NC(=O)[C@H](CO)NC(=O)[C@@H](N)Cc1c[nH]cn1)[C@@H](C)O)[C@@H](C)O)C(C)C)C(=O)N[C@@H](CC(N)=O)C(=O)N[C@H](C(N)=O)[C@@H](C)O [ZP2667] (H-HSQGTFTSDYSKYLDSKAAQDFVQWLMNT-NH2),EC50,[1],0.75 nM
same,Lipolysis potency relative to OXM,[1]; primary adipocyte cultures,240 times
same,Lipolysis potency relative to glucagon,[1]; primary adipocyte cultures,8 times
CC(C)C[C@H](NC(=O)[C@H](CCCCN)NC(=O)[C@H](CC(C)C)NC(=O)[C@H](Cc1c[nH]c2ccccc12)NC(=O)[C@H](CCCNC(=N)N)NC(=O)[C@@H](NC(=O)[C@H](Cc1ccccc1)NC(=O)[C@H](CC(=O)O)NC(=O)[C@H](CCCNC(=N)N)NC(=O)[C@H](C)NC(=O)[C@H](C)NC(=O)[C@H](CCCCN)NC(=O)[C@H](CO)NC(=O)[C@H](CC(=O)O)NC(=O)[C@H](CC(C)C)NC(=O)[C@H](Cc1ccc(O)cc1)NC(=O)[C@H](CCCCN)NC(=O)[C@H](CO)NC(=O)[C@H](Cc1ccc(O)cc1)NC(=O)[C@H](CC(=O)O)NC(=O)[C@H](CO)NC(=O)[C@@H](NC(=O)[C@H](Cc1ccccc1)NC(=O)[C@@H](NC(=O)CNC(=O)[C@H](CCC(N)=O)NC(=O)[C@H](CO)NC(=O)[C@@H](N)Cc1c[nH]cn1)[C@@H](C)O)[C@@H](C)O)C(C)C)C(=O)N[C@@H](C)C(N)=O [ZP2668] (H-HSQGTFTSDYSKYLDSKAARDFVRWLKLA-NH2),EC50,"human GLP-1-R; HEK293 cells expressing human GLP-1-R, cAMP, 15 min at 37° C., read-out: GLP-1R EC50",0.08 nM
same,EC50,[1],101 nM
same,Lipolysis potency relative to OXM,[1]; primary adipocyte cultures,in the same order of magnitude as OXM
CC(C)C[C@H](NC(=O)[C@H](CC(C)C)NC(=O)[C@H](Cc1c[nH]c2ccccc12)NC(=O)[C@H](CCC(=O)O)NC(=O)[C@@H](NC(=O)[C@H](Cc1ccccc1)NC(=O)[C@H](CC(=O)O)NC(=O)[C@H](Cc1c[nH]cn1)NC(=O)[C@H](C)NC(=O)[C@H](C)NC(=O)[C@H](CCCCN)NC(=O)[C@H](CO)NC(=O)[C@H](CC(=O)O)NC(=O)[C@H](CC(C)C)NC(=O)[C@H](Cc1ccc(O)cc1)NC(=O)[C@H](CCCCN)NC(=O)[C@H](CO)NC(=O)[C@H](Cc1ccc(O)cc1)NC(=O)[C@H](CC(=O)O)NC(=O)[C@H](CO)NC(=O)[C@@H](NC(=O)[C@H](Cc1ccccc1)NC(=O)[C@@H](NC(=O)CNC(=O)[C@H](CCC(N)=O)NC(=O)[C@H](CO)NC(=O)[C@@H](N)Cc1c[nH]cn1)[C@@H](C)O)[C@@H](C)O)C(C)C)C(=O)N[C@@H](CCCNC(=N)N)C(=O)N[C@@H](C)C(N)=O [ZP2669] (H-HSQGTFTSDYSKYLDSKAAHDFVEWLLRA-NH2),Effect on food intake during the first hour,C57BI/6 mice,significantly (P<0.05) decreased food intake
same,Effect on HDL/LDL ratios,[2],significant compared to vehicle; also recorded: significant effect
same,Effect on blood concentration of LDL cholesterol,[2],significant compared to vehicle; also recorded: significant effect
same,Improvement of glucose tolerance,"db/db mice; 15 min before oral glucose 1 g/kg, AUC0-240 min",77.1%
same,Effect on oral glucose tolerance,"db/db mice; diabetic db/db mice, result in words",significantly (P<0.01) improved glucose tolerance
same,EC50,[1],4.6 nM
same,Lipolysis potency relative to OXM,[1]; primary adipocyte cultures,40 times
same,Lipolysis potency relative to glucagon,[1]; primary adipocyte cultures,equipotent with glucagon
same,Effect on body weight gain,"[3]; 500 nmol/kg b.i.d. s.c., 28 days, high fat diet",decreased body weight gain to a level similar to that observed with chow feeding
same,Effect on fat deposition,[3]; 4 weeks treatment of DIO mice,significantly decreased fat deposition
Exendin-4 [reference compound],GLP-1R agonism,human GLP-1-R; result in words,very potent GLP-1R agonist
same,Effect on lipolysis,"[1]; primary adipocyte cultures, result in words",no effect
same,Stimulation of lipolysis EC50 (nM),"[1]; primary rat adipocyte cultures, 60 min at 37° C.",No effect
"PYY(3-36): internal positive control in the food intake test, anorectic effect [reference compound]",Effect on food intake during the first hour,C57BI/6 mice,showed an anorectic effect
